Results on 9 molecules are retold here after paper PMC12563652 (International Journal of Molecular Sciences, 2025).

One may read the Ki as a measure of affinity in units of concentration, obtained from inhibition or displacement. One may read the EC50 as the midpoint of the concentration-response curve.

In one data set the target is α2-adrenoceptor. The experiment in a line: Competitive radioligand binding, [3H]clonidine, rat cerebral cortex. As to conditions: n.a. = no activity at 10–5 M.
The test system of another data set is HepG2 cells. The data set can be described thus: Glucose consumption (Amplex Red assay) in HepG2 cells. As to conditions: for increase in glucose consumption (uptake): relative to vehicle-treated cells. Type of data set: cell-based, human. The procedure:
The HepG2 human hepatocellular carcinoma cell line (ATCC® HB-8065™) was cultured in DMEM supplemented with 10% FBS, 100 µg/mL streptomycin, and 100 IU/mL penicillin at 37 °C in 5% CO2. Cells were seeded in 96-well plates at a density of 10,000 cells/well and used for experiments 24 h after plating.
Stock solutions of test compounds were prepared at a concentration of 10 mM in dimethyl sulfoxide (DMSO). At least 1 mg of each substance was carefully measured and mixed with the right amount of DMSO. A series of dilutions were made in DMSO and then further diluted in phosphate-buffered saline before being introduced into the cell culture medium. Precipitation or opalescence was assessed prior to application.
The glucose uptake was measured with the Amplex® Red Glucose/Glucose Oxidase Assay Kit from Thermo Fisher Scientific, following the guidelines provided by the maker. Cell culture supernatants were collected and incubated with a reaction mix containing 100 μM Amplex® Red reagent, 0.2 U/mL horseradish peroxidase (HRP), and 1 U/mL glucose oxidase at room temperature for 30 min in the dark. Fluorescence was measured at 530 nm excitation and 590 nm emission using the POLARstar Omega plate reader (BMG Labtech).

In another data set the test system is 3T3-L1 cells. The data set can be described thus: Lipid accumulation (AdipoRed assay) in 3T3-L1 cells. Type of data set: cell-based, mouse. As to conditions: for lipid accumulation (intracellular lipid content), reduction: 10 µM, compared to vehicle-treated controls. The procedure:
(§1) The 3T3-L1 mouse embryonic fibroblast cell line (ATCC CRL-11605) was cultured according to the standard protocol in Dulbecco’s Modified Eagle Medium (DMEM) supplemented with 10% bovine calf serum, 100 µg/mL streptomycin, and 100 IU/mL penicillin, at 37 °C in a humidified atmosphere containing 5% CO2. Cells were seeded at a density of 10,000 cells/well in collagen type I–coated (10 µg/mL) 96-well plates and allowed to attach for 24 h. Differentiation was initiated by replacing the medium with induction medium composed of DMEM, 0.5 mM 3-isobutyl-1-methylxanthine (IBMX), 1 µM dexamethasone, and 10% fetal bovine serum (FBS). After 48 h (differentiation day 2), the medium was replaced with DMEM supplemented with 10% FBS and 10 µg/mL human recombinant insulin. After an additional 24 h, the medium was replaced with DMEM supplemented with 10% bovine calf serum, 100 µg/mL streptomycin, and 100 IU/mL penicillin. The medium was refreshed every 24 h for 10 consecutive days to allow full differentiation into adipocytes.
On day 10 of differentiation, cells were treated with test compounds for 24 h. To investigate the involvement of the TAAR1 receptor, cells were pre-treated for 15 min with the selective TAAR1 antagonist RTI-7470-44 (40 nM) before compound exposure. After incubation, the culture medium was removed, and wells were gently rinsed with 200 µL PBS and refilled with 200 µL PBS. AdipoRed reagent (5 µL; Lonza) was added to each well, mixed, and incubated at room temperature for 10 min. Fluorescence was measured using the POLARstar Omega plate reader (excitation 485 nm, emission 535 nm).

Data set [1] has as its system multiple species TAAR1 (mouse, rat, and human). On the set-up: method as in PMID 31848873. The note with it: heterologous cell lines; cited from earlier work.
The target in another data set is T1, human TAAR1 (Homo sapiens, UniProt Q96RJ0).
T1 sequence (Q96RJ0 1-339): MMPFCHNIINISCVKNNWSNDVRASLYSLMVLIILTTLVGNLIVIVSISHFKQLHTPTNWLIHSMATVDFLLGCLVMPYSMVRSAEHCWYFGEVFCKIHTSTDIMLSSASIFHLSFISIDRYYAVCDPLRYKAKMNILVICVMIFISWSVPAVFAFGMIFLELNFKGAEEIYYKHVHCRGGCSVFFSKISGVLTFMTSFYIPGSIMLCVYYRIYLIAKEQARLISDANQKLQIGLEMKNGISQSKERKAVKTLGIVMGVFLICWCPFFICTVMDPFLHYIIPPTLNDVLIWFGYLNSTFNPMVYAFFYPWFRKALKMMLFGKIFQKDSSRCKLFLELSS
The data set can be described thus: TAAR1 agonist activity, Hit Hunter cAMP assay. The data set is classed as cell-based. The note with it: cAMP accumulation; n.a. = no activity at 10–5 M; read-out: TAAR1 Ago EC50.

Data set [2] deals with 3T3-L1 adipocytes. The experiment in a line: Steatosis, HCS LipidTOX imaging in 3T3-L1 adipocytes. The data set is classed as cell-based, mouse. The protocol:
as §1
(§2) Lipid accumulation and phospholipidosis were evaluated using the HCS LipidTOX Phospholipidosis and Steatosis Detection Kit (Thermo Fisher Scientific). Cells were cultured in black, clear-bottom 96-well plates and treated as described. Next, cells were fixed with 4% paraformaldehyde (15 min), washed with PBS, and stained with LipidTOX Green Neutral Lipid Stain (for steatosis) and LipidTOX Red Phospholipidosis Detection Reagent, prepared according to the manufacturer’s instructions. Nuclei were counterstained with Hoechst 33342 (2 µg/mL). Image acquisition and quantitative analysis were performed using High Content Screening (HCS) technology on the ImageXpress XLS system (Molecular Devices). Lipid droplet and phospholipid content were quantified using automated image analysis pipelines.

In data set [3] the test system is 3T3-L1 adipocytes. The experiment in a line: Phospholipidosis, HCS LipidTOX imaging in 3T3-L1 adipocytes. The data set is classed as cell-based, mouse. The procedure: as §1, §2
A further data set deals with 3T3L1 cell line. Type of data set: cell-based. The note with it: mouse, 24 h. The protocol:
(§3) Prior to investigating the biological activity and molecular characteristics of the test compounds in vitro, a comprehensive cytotoxicity screening was performed using HepG2 and 3T3-L1 cell lines. Two complementary assays were applied: one based on the quantification of adenylate kinase release as an indicator of cell membrane damage, and another relying on resazurin reduction to assess cellular metabolic activity. These complementary assays enable sensitive and reliable detection of cytotoxic effects across diverse cell types. This preliminary assessment was carried out to ensure that subsequent functional analyses would not be confounded by nonspecific cytotoxic effects.
(§4) The damage of cell membrane was evaluated with the ToxiLight BioAssay Kit from Lonza (Visp, Switzerland). This test is very sensitive and measures cell damage by looking at the release of adenylate kinase (AK). After 24 h of treatment, 5 µL of culture supernatant was transferred to a 384-well white plate (PerkinElmer, Singapore), followed by the addition of 20 µL of Adenylate Kinase Detection Reagent (AKDR). After a 10 min incubation at room temperature, luminescence was measured using the POLARstar Omega plate reader (BMG Labtech, Ortenberg, Germany). Results were expressed as a percentage relative to a lysed control (100% cell death).

Data set [4] has as its system HEPG2 cell line. The data set is classed as cell-based. The note with it: human, 24 h. The protocol:
as §3, §4

The subject of data set [5] is HEPG2 cell line. The data set can be described thus: Cell viability assay (PrestoBlue, metabolic function), HepG2. The data set is classed as cell-based, human. As to conditions: 24 h, mean. The protocol:
as §3
(§5) Cell viability was measured using PrestoBlue reagent (Thermo Fisher Scientific, Waltham, MA, USA), following the manufacturer’s instructions. After 24 h of compound treatment, PrestoBlue reagent was added to each well at 10% of the remaining medium volume. The plate was incubated at 37 °C for 15 min, and fluorescence was measured using the POLARstar Omega plate reader (excitation 530 nm, emission 580 nm). Results were expressed as a percentage of viable cells relative to the DMSO-treated control.

The test system of the next data set is 3T3-L1 cell line. The experiment in a line: Cell viability assay (PrestoBlue, metabolic function), 3T3-L1. The data set is classed as cell-based, mouse. The note with it: 24 h, mean. The procedure:
as §3, §5

The next data set has as its system C57BL/6 mice. The experiment in a line: Inhibition of gastric emptying (mouse model, phenol red). Type of data set: in vivo. The protocol:
Fifty male C57BL/6 mice (22–27 g) were housed in standard cages while maintaining a 12:12-h light/dark cycle, with food and water available ad libitum. The experimental procedures were performed from 10:00 a.m. to 14:00 p.m.
The experiment was conducted according to Miyasaka et al. and Kotańska et al., with some minor modifications. Mice were subjected to a 20 h food deprivation and a 2 h water deprivation prior to testing. The animals received a vehicle (0.25 mL/mouse) alone or along with various compounds: JP-14 (10 mg/kg b. w.), RT (5 mg/kg body weight), metformin (100 mg/kg b. w.), or loperamide (reference compound; 10 mg/kg b. w.) via gastric gavage. Following a 45 min interval, phenol red (0.5 mL, 0.05% w/v) combined with glucose (1 g/kg body weight) was administered through the same route. Additionally, each group received an intraperitoneal injection of heparin (2500 U/mouse) 20 min prior to the collection of stomach contents. Seven mice treated with the vehicle were sacrificed immediately after the phenol red administration to serve as a standard control (representing 100% phenol red in the stomach at 0 min), establishing a baseline for maximum absorbance (100%). The leftover mice were sacrificed 30 min later. The stomachs were removed and homogenized using an OMNI homogenizer (OMNI International Company, Kennesaw, GA, USA), with 10 mL of 0.1 N NaOH. To 5 mL of homogenate, 0.5 mL of 20% w/v solution of trichloroacetic acid was incorporated to precipitate the proteins. Subsequently, the samples were centrifuged at 600× g for 15 min at a temperature of 20 °C, and 0.25 mL of supernatant was mixed with 1 mL of 0.5 N NaOH to achieve maximum color intensity. The concentration of phenol red was measured using spectrophotometry, with absorbance evaluated at a wavelength of 560 nm (MuLTISKAN.GO, Thermo Fisher Scientific Inc., Waltham, MA USA). For each mouse, the percentage of gastric emptying (GE %) was calculated using the following equation:(1) GE%=(Ac0−Ab)/(Ac0−Ac30)×100% where: Ac0 is the absorbance of the control gastric sample collected immediately after dye administration, and Ac30 is the absorbance of the control gastric sample collected 30 min after dye administration, i.e., Ac0–Ac30 = 100% gastric emptying.

Like-named read-outs stand apart in the source and are kept apart here.

For `COc1ccc(/C=N/NC(=N)N)cc1` [4 (JP06)], the Ki on α2-adrenoceptor turned out to be 1070 ± 78 nM.

For `Clc1cccc(N2CCNCC2)c1` [mCPP, meta-chlorophenylpiperazine], the “increase in glucose consumption (uptake)” value in the data set on HepG2 cells (10 µM) was “no significant changes”. Moreover, the “lipid accumulation (intracellular lipid content), reduction” value in the data set with 3T3-L1 cells is listed as “significantly increased lipid accumulation”.

Turning to `NCC(O)c1ccc(O)cc1` (stereo not drawn) [para-octopamine], the EC50 in [1] is 2000 to 20000 nM.

As for `NCCc1ccc(O)cc1` [tyramine], the EC50 at human TAAR1 amounted to 5870 ± 470 nM. Also, the “glucose-stimulating effect under TAAR1 blockade” value in the data set with HepG2 cells (10 µM + RTI-7470-44 (40 nM)) is listed as “substantially attenuated”. Also, the “increase in glucose consumption (uptake)” value with HepG2 cells (10 µM) is on record as 32%. In addition, the “lipid-lowering effect under TAAR1 blockade” value with 3T3-L1 cells (10 µM + RTI-7470-44 (40 nM)) is “completely abolished”. The “lipid accumulation (intracellular lipid content), reduction” value in the data set on 3T3-L1 cells is 33%. Moreover, the “effect on steatosis under TAAR1 blockade” value with 3T3-L1 adipocytes [2] (10 µM + RTI-7470-44 (40 nM)) was “abolished”. Further, in the data set with 3T3-L1 adipocytes [2] (10 µM, vs vehicle), the “steatosis (neutral lipid accumulation)” value is “statistically significant decrease”. Moreover, in the data set on 3T3-L1 adipocytes [3] (10 µM + RTI-7470-44 (40 nM)), the “effect on phospholipidosis under TAAR1 blockade” value was “reversed”. In addition, the “phospholipidosis (phospholipid accumulation)” value in the data set on 3T3-L1 adipocytes [3] (10 µM, vs vehicle) is reported as “significantly reduced”. In addition, the “membrane integrity, percentage relative to control (death cells)” value with 3T3L1 cell line (0.1 μM) worked out at 6%; in the data set with 3T3L1 cell line (1 μM), 6%; in the data set with 3T3L1 cell line (10 μM), 6%; in the data set with 3T3L1 cell line (50 μM), 6%; with 3T3L1 cell line (100 μM) it was 8%; in the data set on HEPG2 cell line [4] (0.1 μM), 8%. Moreover, the “membrane integrity, percentage relative to control (death cells)” value with HEPG2 cell line [4] (1 μM) was determined as 7%; with HEPG2 cell line [4] (10 μM), 7%; in the data set with HEPG2 cell line [4] (50 μM), 8%; in the data set with HEPG2 cell line [4] (100 μM) it was 11%. The “cellular metabolic function, percentage relative to control (live cells)” value in the data set with HEPG2 cell line [5] (Table S4, 0.1 μM) stood at 101%; with HEPG2 cell line [5] (Table S4, 1 μM), 98%; in the data set with HEPG2 cell line [5] (Table S4, 10 μM), 97%; with HEPG2 cell line [5] (Table S4, 50 μM), 89%; in the data set with HEPG2 cell line [5] (Table S4, 100 μM), 80%; in the data set with 3T3-L1 cell line (Table S5, 0.1 μM) it was 95%. Moreover, the “cellular metabolic function, percentage relative to control (live cells)” value with 3T3-L1 cell line (Table S5, 1 μM) amounted to 90%; with 3T3-L1 cell line (Table S5, 10 μM), 88%; in the data set with 3T3-L1 cell line (Table S5, 50 μM), 67%; with 3T3-L1 cell line (Table S5, 100 μM) it was 55%.

On α2-adrenoceptor, `N#Cc1cc(/C=N/NC(=N)N)ccc1F` displayed a Ki of 996 nM.

On to `CN(C)C(=N)N=C(N)N` [Metformin, metformin], for which the “increase in glucose consumption (uptake)” value in the data set with HepG2 cells (100 µM) is reported as 36%. Further, the “inhibitory effect on gastric emptying” value with C57BL/6 mice (100 mg/kg b.w.) is “about 30%”.

In the case of `NCCc1c[nH]c2ccccc12` [tryptamine], in data set [1], the EC50 is 400 to 21000 nM.

Take `CN(CCOc1ccc(CC2SC(=O)NC2=O)cc1)c1ccccn1` (stereo not drawn) [Rosiglitazone, rosiglitazone]: the “lipid accumulation, reduction” value with 3T3-L1 cells (100 µM, relative to vehicle-treated cells) is on record as 90%.

On to `CN(C)C(=O)C(CCN1CCC(O)(c2ccc(Cl)cc2)CC1)(c1ccccc1)c1ccccc1` [loperamide], for which, in the data set with C57BL/6 mice (intragastric, 10 mg/kg b.w.), the “percentage inhibition of gastric emptying” value is “about 55%”.
